Data taken from publication PMC5393024, “Discovery and characterization of natural tropolones as inhibitors of the antibacterial target CapF from Staphylococcus aureus” (Scientific Reports, 2015).

Tests used:
CapF [1] = test: SPR binding to immobilized CapF; set-up: species or system Staphylococcus aureus; conditions: 25 °C
Source text: To identify small-molecule inhibitors of CapF we employed fragment-based methodologies (Supplementary Information Figure S1)[13][14]. A fragment library consisting of 1,994 compounds was obtained from the Drug Discovery Initiative program (The University of Tokyo, see the Methods section for an brief description of the features of this library). This library was employed to screen for potential inhibitors of CapF using the technique of surface plasmon resonance (SPR). This screening methodology identified compounds with the ability to bind to the target protein but not by their inhibitory potency. Inhibition was only assessed with the selected hit compound using two separate enzymatic assays (see below). To maximize the sensitivity of the SPR signal the microtiter-based assay mode was employed. The values of the parameters CV (1.0%) and Z-factor (0.93) were monitored throughout the screen. […]
A total of 15 compounds selected from the library screening were next evaluated with SPR at three different concentrations (100 μM, 10 μM, and 1 μM) to detect compounds giving false positive signals, which are generally known as nonspecific and promiscuous binders. […] Lastly, we determined the binding affinity of these five compounds for CapF with SPR. […]

CapF [2] = test: NADPH consumption assay (absorbance at 340 nm); format: biochemical, Staphylococcus aureus; conditions: 0.02 μM CapF, 1.0 μM CapE, 125 μM UDP-D-GlcNAc, 250 μM NADPH, 37 °C
Method: A second assay monitoring the consumption of NADPH corroborates the inhibitory effect of 3-isopropenyl-tropolone (Fig. 2c). This assay is sensitive to the NADPH consumed by the SDR domain during the second reaction catalyzed by CapF (reduction step). […] Nevertheless, additional experiments were required to corroborate that idea (see below).
The enzymatic performance of CapF was evaluated by examining the consumption of NADPH spectrophotometrically, or by monitoring the disappearance of substrate and the formation of product by HPLC[9][12]. First, the time-dependent consumption of NADPH (monitored from a decrease of adsorption at 340 nm) was carried out in 384-well plates at a final volume of 50 μL. The solution contained 1.0 μM CapE, 0.02 μM CapF, 125 μM UDP-D-GlcNAc (substrate), 250 μM NADPH and fragment compounds at various concentrations in HBS supplemented with 0.005% (v/v) Tween-20 and 5% (v/v) DMSO. Each reaction mixture was incubated at 37 °C and the absorption at 340 nm was measured with a plate reader (PHERAstar, BMG Labtech, Durham, NC).
Figure S7. (a) Structure of compounds employed. (b-d) Time course of NADPH consumption by CapF in the presence of (b) tropolone, (c) 4-isopropyl-tropolone, and (d) 2-Cl-tropone. Increasing the concentration of compounds decreases the rate of consumption of NADPH. (e-g) Inhibition after two hours for (e) tropolone, (f) 4-isopropyl-tropolone, and (g) 2-Cl-tropone. Concentration of CapE and CapF was 1.0 µM and 0.02 µM, respectively. Concentration of NADPH and UDP-D-GlcNAc was 250 µM and 125 µM, respectively. The change of absorbance was calculated with respect to a control assay in the absence of CapF.
(§1) (1 picture or pasted object on this page, not shown here)

CapE = test: HPLC assay employing only CapE; format: biochemical, Staphylococcus aureus; conditions: CapF not present
Method: For that purpose, an HPLC-based assay monitoring the consumption of substrate and the appearance of product was employed (Fig. 2b)[12]. Whereas in the absence of 3-isopropenyl-tropolone the substrate was converted into product with nearly quantitative yield (91%), in the presence of 1 mM 3-isopropenyl-tropolone the peaks corresponding to substrate and product were largely absent (their combined areas were <18%). Instead, a large peak corresponding to the byproduct generated by the enzyme CapE under thermodynamic control was observed (80% yield as judged from the area under the curve). To confirm that inhibition of 3-isopropenyl-tropolone is specific for CapF we performed an additional experiment employing only CapE, which is the enzyme generating the substrate for CapF in the functional assay (Supplementary Information Figure S2).
Figure S2. Elution profile of compounds after incubation of the substrate UDP-D-GlcNAc with
CapE in the absence (red line) and presence (black line) of 3-isopropenyl-tropolone. In this
experiment CapF was not present. Experimental conditions are described in the Methods section.
The blue, red and green triangles indicate the elution peaks of product, substrate, and by-product,
as §1

[3] = system: apo-CapF (Zn^2+-depleted); test: ITC binding to Zn2+-depleted CapF (1 mM EDTA); set-up: species or system Staphylococcus aureus; conditions: 150 μM CapF, 1.65 mM inhibitor
Source text: Because tropolone and its analogs have been described as metal chelators in proteins, we anticipated that binding of the inhibitor to CapF is governed by the Zn^2+ ion present in the cupin domain[12]. To confirm this hypothesis, we performed two different types of experiments. First, we determined the binding properties of 3-isopropenyl-tropolone to apo-CapF (i.e. Zn^2+-depleted CapF) and to holo-CapF (reconstituted with Zn^2+) by isothermal titration calorimetry (ITC). The stoichiometry is consistent with a 1:1 binding model.
Figure 3 Binding of 3-isopropenyl-tropolone to CapF requires Zn^2+. CapF (150 μM) reconstituted with Zn^2+ was titrated with 1.65 mM inhibitor in the absence (a) or the presence (b) of 1 mM EDTA. The upper panels correspond to the titration data, and the lower panels to the integrated binding isotherms. (c) Binding competition assay. CapF (1.0 μM) reconstituted with Zn^2+ in the presence of the Zn^2+-sensitive dye FluoZin-3 (1.0 μM) was titrated with 3-isopropenyl-tropolone (λEX = 490 nm; λEM = 520 nm).
Binding constants and thermodynamic parameters of the interaction between CapF and fragment compounds were determined with an iTC200 instrument (GE Healthcare) at 25 °C. Samples were equilibrated in a buffer composed of 10 mM HEPES (pH 7.4) and 150 mM NaCl supplemented with 5% (v/v) DMSO. CapF at 150–270 μM was titrated with compounds at 0.5–1.65 mM. […]

## C=C(C)c1ccccc(=O)c1O [3-isopropenyl-tropolone]
CapF [1]
  binding affinity for CapF with SPR: sub-millimolar
CapF [2]
  inhibition of NADPH consumption: rate of consumption of NADPH slowed down as the concentration of inhibitor increases
CapF [2]; listed as 3-isopropylen-tropolone
  inhibition of NADPH consumption: inhibited the consumption of NADPH in a concentration-dependent basis
CapE
  HPLC profile of the reaction products of CapE in presence of inhibitor: not altered
[3]
  binding to apo-CapF by ITC: does not bind
